The record followed here is ChEMBL document CHEMBL6083250, “Core Modifications of GSK3335103 toward Orally Bioavailable αvβ6 Inhibitors with Improved Synthetic Tractability” (J Med Chem, 2024).

Data set [1] can be described thus: in vitro. Particulars: PAMPA.
The nature of data set [2]: Lipophilicity, logD of compound at pH 7.4 by chromatography. It is filed as physicochemical. Particulars: buffer.
A short description of data set [3]: Dissociation constant, pKa of compound. Type of data set: physicochemical.
Data set [4] is described as follows: MRT in Wistar Han rat at 1 mg/kg, iv at 7 to 24 hrs by LC-MS/MS analysis. Type of data set: ADME, organism-based. Particulars: in vivo, time 7-24 hrs.
The nature of data set [5]: Volume of distribution at steady state in Wistar Han rat at 1 mg/kg, iv at 7 to 24 hrs by LC-MS/MS analysis. As to conditions: in vivo, time 7-24 hrs, read-out: Vdss. Type of data set: ADME, organism-based.
The nature of data set [6]: Oral availability in Wistar Han rat at 1 mg/kg at 7 to 24 hrs by LC-MS/MS analysis. It is filed as ADME, organism-based. Particulars: in vivo, time 7-24 hrs.
Data set [7] in a line: Kinetic solubility of compound by CAD analysis. It is filed as physicochemical. As to conditions: read-out: Kinetic_solubility.
Data set [8] in a line: Unbound AUC in Wistar Han rat at 2 mg/kg, po at 7 to 24 hrs by LC-MS/MS analysis. Type of data set: ADME, organism-based. Particulars: in vivo, time 7-24 hrs.
Data set [9] is described as follows: Cmax in Wistar Han rat at 1 mg/kg, po at 7 to 24 hrs by LC-MS/MS analysis. Type of data set: ADME, organism-based. Particulars: in vivo, time 7-24 hrs.
The nature of data set [10]: AUC in Wistar Han rat at 1 mg/kg, po at 7 to 24 hrs by LC-MS/MS analysis. Type of data set: ADME, organism-based. As to conditions: in vivo, time 7-24 hrs.
The nature of data set [11]: Unbound AUC in Wistar Han rat at 1 mg/kg, po at 7 to 24 hrs by LC-MS/MS analysis. It is filed as ADME, organism-based. As to conditions: in vivo, time 7-24 hrs.

The molecule `O=C(O)C[C@H](CN1CC[C@@H](CCc2ccc3c(n2)NCCC3)C1)c1cccc(N2CCOCC2)c1` returned a Papp in [1] of 2.7 ×10⁻⁶ cm/s.
Molecule `COCCOc1cccc([C@@H](CC(=O)O)CN2CC(C(F)(F)CCc3ccc4c(n3)NCCC4)C2)c1` yielded a Papp in data set [1] of 3.2 ×10⁻⁶ cm/s. The molecule also yielded a chromatographic logD in data set [2] of 3.
Consider `O=C(O)C[C@H](CN1CC(CCc2ccc3c(n2)NCCC3)C1)c1cccc(N2CCOCC2)c1`, for which the apparent permeability coefficient (Papp) in [1] was < 0.3 ×10⁻⁶ cm/s.
On to `COCCOc1cccc([C@H](CC(=O)O)CN2CC[C@@](F)(CCc3ccc4c(n3)NCCC4)C2)c1`, for which the pKa in data set [3] was determined as 4.1. The MRT in data set [4] worked out at 3 h. The Vd in data set [5] was 3.6 L/kg. Moreover, the bioavailability in data set [6] was determined as 93%. In data set [1], this molecule had a Papp of 14.6 ×10⁻⁶ cm/s. In addition, the solubility kinetic in data set [7] was ≥ 238 µg/mL. Also, the fAUC in data set [8] stood at 280 ng·h/mL. The molecule also returned a chromatographic logD in data set [2] of 2.9. Also, the Cmax in data set [9] amounted to 530 ng/mL.
With `COc1cc([C@H](CC(=O)O)CN2CC(C(F)(F)CCc3ccc4c(n3)NCCC4)C2)ccc1F`, in data set [3], the pKa was 4. Besides, the MRT in data set [4] was 3.1 h. Further, the Vd in [5] is 4.6 L/kg. Besides, the bioavailability in data set [6] was determined as 94%. The molecule also came in with an AUC in data set [10] of 881 ng·h/mL. The Papp in data set [1] worked out at 16.3 ×10⁻⁶ cm/s. For the same molecule, in [7], the solubility kinetic was ≥ 159 µg/mL. The same molecule displayed a fAUC in [11] of 135 ng·h/mL. In addition, the chromatographic logD in data set [2] amounted to 3.1.
With `Cc1cc(C)n(-c2cccc([C@@H](CC(=O)O)CN3CC(CCCc4ccc5c(n4)NCCC5)C3)c2)n1`, the apparent permeability coefficient (Papp) in data set [1] is < 0.3 ×10⁻⁶ cm/s.
Take `COCCOc1cccc([C@@H](CC(=O)O)CN2CC(SCCc3ccc4c(n3)NCCC4)C2)c1`: the apparent permeability (Papp) in data set [1] turned out to be 6.5 ×10⁻⁶ cm/s. For the same molecule, the chromatographic logD in data set [2] came out at 2.4.
Turning to `Cc1cc(C)n(-c2cccc([C@H](CC(=O)O)CN3CC(CCCc4ccc5c(n4)NCCC5)C3)c2)n1`, the apparent permeability (Papp) in [1] is < 1 ×10⁻⁶ cm/s.
`COCCOc1cccc([C@H](CC(=O)O)CN2CC(C(F)(F)CCc3ccc4c(n3)NCCC4)C2)c1`: in data set [3], the pKa worked out at 3.9. In data set [4], the MRT worked out at 1.7 h. Also, the Vd in [5] was found to be 3 L/kg. Moreover, the bioavailability in data set [6] worked out at 17%. In [10], the AUC came out at 95 ng·h/mL. Further, the Papp in [1] came to 8.8 ×10⁻⁶ cm/s. The molecule also came in with a fAUC in [11] of 38 ng·h/mL. In data set [2], the chromatographic logD was found to be 3. The Cmax in [9] was 20.4 ng/mL.
Take `COCCOc1cccc([C@H](CC(=O)O)CN2CC(SCCc3ccc4c(n3)NCCC4)C2)c1`: the pKa in [3] was 4.3. Further, the Papp in data set [1] is 7.2 ×10⁻⁶ cm/s. Further, the chromatographic logD in [2] was determined as 2.4.
Take `O=C(O)CC(CN1CC(C(F)(F)CCc2ccc3c(n2)NCCC3)C1)c1cccc(O[C@@H]2CCOC2)c1` (mixture of isomers): the Papp in data set [1] is 8.2 ×10⁻⁶ cm/s. Further, the chromatographic logD in data set [2] was found to be 2.8.
The matching figures for `O=C(O)CC(CN1CC(C(F)(F)CCc2ccc3c(n2)NCCC3)C1)c1cccc(O[C@H]2CCOC2)c1` (mixture of isomers): 6.3 ×10⁻⁶ cm/s and 2.9.
The matching figures for `COc1cc(C(CC(=O)O)CN2CC(C(F)(F)CCc3ccc4c(n3)NCCC4)C2)ccc1C#N` (racemic): 5.5 ×10⁻⁶ cm/s and 2.9.
Regarding `COc1cc(C(CC(=O)O)CN2CC(C(F)(F)CCc3ccc4c(n3)NCCC4)C2)ccc1F` (racemic), in data set [4], the mean residence time (MRT) is 3.8 h. For the same molecule, the Vd in data set [5] came out at 2.4 L/kg. Also, the bioavailability in data set [6] was found to be 79%. Moreover, the exposure (AUC) in [10] was determined as 1370 ng·h/mL. The molecule further returned a Papp in data set [1] of 23 ×10⁻⁶ cm/s. The same molecule gave a fAUC in [11] of 212 ng·h/mL. The chromatographic logD in data set [2] was found to be 3.2. Also, in data set [9], the concentration peaked (Cmax) at 313 ng/mL.
For the molecule `O=C(O)CC(CN1CC(C(F)(F)CCc2ccc3c(n2)NCCC3)C1)c1cccc(N2CCOCC2)c1` (racemic), in [1], the Papp was determined as 5.5 ×10⁻⁶ cm/s. In [2], this molecule yielded a chromatographic logD of 2.7.
For `O=C(O)CC(CN1CC(C(F)(F)CCc2ccc3c(n2)NCCC3)C1)c1cccc(OC2CCOCC2)c1` (racemic), the Papp in data set [1] came out at 8.9 ×10⁻⁶ cm/s. The chromatographic logD in data set [2] was found to be 3.1.
The matching figures for `O=C(O)CC(CN1CC(C(F)(F)CCc2ccc3c(n2)NCCC3)C1)c1ccccc1` (racemic): 21 ×10⁻⁶ cm/s and 3.
On the same counts, the results for `O=C(O)CC(CN1CC(C(F)(F)CCc2ccc3c(n2)NCCC3)C1)c1cccc(OC2CC2)c1` (racemic) are 39 ×10⁻⁶ cm/s and 3.5.
In data set [1], `COc1cccc(C(CC(=O)O)CN2CC(C(F)(F)CCc3ccc4c(n3)NCCC4)C2)c1I` (racemic) yielded a Papp of 15 ×10⁻⁶ cm/s. Besides, the chromatographic logD in data set [2] came to 3.
In data set [1], `O=C(O)CC(CN1CC(C(F)(F)CCc2ccc3c(n2)NCCC3)C1)c1ccnc(C2CC2)c1` (racemic) registered a Papp of 7.4 ×10⁻⁶ cm/s. In data set [2], this molecule came in with a chromatographic logD of 2.5.
The matching figures for `CCOc1cccc(C(CC(=O)O)CN2CC(C(F)(F)CCc3ccc4c(n3)NCCC4)C2)c1` (racemic): 21 ×10⁻⁶ cm/s and 3.4.
On the same counts, the results for `COc1cc(C(CC(=O)O)CN2CC(C(F)(F)CCc3ccc4c(n3)NCCC4)C2)ccc1Cl` (racemic) are 28 ×10⁻⁶ cm/s and 3.6.
Turning to `COCCOc1cccc(C(CC(=O)O)CN2CC(OCc3ccc4c(n3)NCCC4)C2)c1` (racemic), the pKa in [3] came to 4. The Papp in data set [1] was < 0.3 ×10⁻⁶ cm/s. This molecule showed a chromatographic logD in data set [2] of 2.
Regarding `COc1ccc(F)c(C(CC(=O)O)CN2CC(C(F)(F)CCc3ccc4c(n3)NCCC4)C2)c1` (racemic), the MRT in [4] worked out at 4.2 h. For the same molecule, the Vd in [5] was found to be 1.6 L/kg. Moreover, the bioavailability in data set [6] turned out to be 91%. In [10], this molecule showed an AUC of 2460 ng·h/mL. Moreover, in [1], the Papp is 25 ×10⁻⁶ cm/s. In data set [11], this molecule returned a fAUC of 163 ng·h/mL. Besides, in data set [2], the chromatographic logD was 3.3. The molecule also had a Cmax in data set [9] of 739 ng/mL.
In data set [1], `O=C(O)CC(CN1CC(C(F)(F)CCc2ccc3c(n2)NCCC3)C1)c1ccnc(OC2CC2)c1` (racemic) returned a Papp of 10.4 ×10⁻⁶ cm/s. Besides, the chromatographic logD in [2] is 2.7.
For `COc1cccc(C(CC(=O)O)CN2CC(C(F)(F)CCc3ccc4c(n3)NCCC4)C2)c1` (racemic), in data set [1], the Papp was 20 ×10⁻⁶ cm/s. In [2], this molecule displayed a chromatographic logD of 3.
In data set [4], `Cc1cc(C)n(-c2cccc(C(CC(=O)O)CN3CC(C(F)(F)CCc4ccc5c(n4)NCCC5)C3)c2)n1` (racemic) displayed an MRT of 0.2 h. In [5], the Vd was found to be 0.7 L/kg. The bioavailability in data set [6] turned out to be 3%. The AUC in data set [10] was 14 ng·h/mL. The Papp in data set [1] came out at 13 ×10⁻⁶ cm/s. In addition, the fAUC in data set [11] is 0.6 ng·h/mL. This molecule came in with a chromatographic logD in [2] of 3.3. Also, the concentration in [9] peaked (Cmax) at 12.4 ng/mL.
Turning to `O=C(O)CC(CN1CC(C(F)(F)CCc2ccc3c(n2)NCCC3)C1)c1cccc(C2CC2)c1` (racemic), the Papp in [1] was 43 ×10⁻⁶ cm/s. The same molecule registered a chromatographic logD in data set [2] of 3.7.
The matching figures for `O=C(O)CC(CN1CC(C(F)(F)CCc2ccc3c(n2)NCCC3)C1)c1ccc2c(c1)OCC2` (racemic): 16 ×10⁻⁶ cm/s and 3.
The matching figures for `O=C(O)CC(CN1CC(C(F)(F)CCc2ccc3c(n2)NCCC3)C1)c1cccc2c1OCC2` (racemic): 19 ×10⁻⁶ cm/s and 3.1.
For the molecule `COc1ncc(C(CC(=O)O)CN2CC(C(F)(F)CCc3ccc4c(n3)NCCC4)C2)cc1C` (racemic), the MRT in data set [4] came out at 2.9 h. In addition, the Vd in [5] was 1.1 L/kg. In data set [6], the bioavailability is 57%. Further, the AUC in data set [10] amounted to 1510 ng·h/mL. The molecule further yielded a Papp in data set [1] of 10.2 ×10⁻⁶ cm/s. Besides, the solubility kinetic in data set [7] was ≥ 118 µg/mL. In data set [11], this molecule returned a fAUC of 152 ng·h/mL. In [2], this molecule displayed a chromatographic logD of 2.7. In [9], this molecule showed a Cmax of 496 ng/mL.
